Laboratory results from patent US6495491B1, “Substituted cyanophenyl uracils” (Bayer Aktiengesellschaft, priority 1995, dated 2002).

Tests used:
Format in all cases: in vivo
Chenopodium [1] = experiment: Post-emergence test, Chenopodium; details: application rates between 30 and 500 g/ha, after three weeks
Experimental: (§1) Solvent: 5 parts by weight of acetone
(§2) Emulsifier: 1 part by weight of alkylaryl polyglycol ether
(§3) To produce a suitable preparation of active compound, 1 part by weight of active compound is mixed with the stated amount of solvent, the stated amount of emulsifier is added and the concentrate is diluted with water to the desired concentration.
(§4) Test plants which have a height of 5-15 cm are sprayed with the preparation of the active compound in such a way as to apply the particular amounts of active compound desired per unit area. The concentration of the spray liquor is chosen so that the particular desired amounts of active compound are applied in 2000 l of water/ha.
(§5) After three weeks, the degree of damage to the plants is rated in % damage by comparison with the development of the untreated control.
(§6) 0%=no effect (like untreated control)

Abutilon [2] = experiment: Pre-emergence test, Abutilon; details: application rates between 8 and 125 g/ha, after three weeks
Experimental: as §1, §2, §3
(§7) Seeds of the test plants are sown in normal soil. After 24 hours, the soil is watered or sprayed with the preparation of the active compound. It is advantageous to keep the amount of water per unit area constant. The concentration of the active compound in the preparation is immaterial, only the amount of active compound applied per unit area matters.
as §5, §6

Matricaria [3] = experiment: Post-emergence test, Matricaria; details: application rates between 30 and 500 g/ha, after three weeks
Experimental: as §1, §2, §3, §4, §5, §6

Matricaria [4] = experiment: Pre-emergence test, Matricaria; details: application rates between 8 and 125 g/ha, after three weeks
Experimental: as §1, §2, §3, §7, §5, §6

wheat = experiment: Pre-emergence test, crop tolerance wheat; details: application rates between 8 and 125 g/ha, after three weeks
Experimental: as §1, §2, §3, §7, §5, §6

Abutilon [5] = experiment: Post-emergence test, Abutilon; details: application rates between 30 and 500 g/ha, after three weeks
Experimental: as §1, §2, §3, §4, §5, §6

Chenopodium [6] = experiment: Pre-emergence test, Chenopodium; details: application rates between 8 and 125 g/ha, after three weeks
Experimental: as §1, §2, §3, §7, §5, §6

COc1cc(-n2c(=O)cc(C(F)(F)F)n(C)c2=O)c(F)cc1C#N [Example 2, 1-(4-cyano-2-fluoro-5-methoxy-phenyl)-3,6-dihydro-2,6-dioxo-3-methyl-4-trifluoromethyl-1(2H)-pyrimidine]
degree of damage to the plants, % damage (Chenopodium [1]): 100%
degree of damage to the plants, % damage (Abutilon [2]): 100%
degree of damage to the plants, % damage (Matricaria [3]): 100%
degree of damage to the plants, % damage (Matricaria [4]): 100 %/o
degree of damage to the plants, % damage (tolerance by crops) (wheat): 0%
degree of damage to the plants, % damage (Abutilon [5]): 100%
degree of damage to the plants, % damage (Chenopodium [6]): 100 %/o
